Assay: wn = mass fraction of the nth substance listed
Settings: 101 kPa, Liquid, Alternating current cell with electrodes, w2 = 0.01

CCCCCCCCCCCCCCCC[N+](C)(C)C.[Br-] [N,N,N-trimethyl-1-hexadecanaminium bromide] + O
Settings | electrical conductivity [S/m]
323.85 K | 0.0839
324.05 K | 0.0841
324.35 K | 0.0842
324.45 K | 0.0843
324.65 K | 0.0846
324.75 K | 0.0848
324.85 K | 0.0849
325.15 K | 0.0853
325.35 K | 0.0855
325.55 K | 0.0856
325.65 K | 0.0858
325.85 K | 0.086
326.15 K | 0.0862
326.25 K | 0.0863
326.45 K | 0.0866
326.55 K | 0.0869
326.75 K | 0.087
326.95 K | 0.0871
327.05 K | 0.0873
327.55 K | 0.0876
327.75 K | 0.0876
333.45 K | 0.0912
333.65 K | 0.0914
333.75 K | 0.0915
334.05 K | 0.0916
334.35 K | 0.092
334.75 K | 0.0922
334.95 K | 0.0924
335.35 K | 0.0926
335.55 K | 0.0927
335.75 K | 0.0929
335.95 K | 0.093
336.15 K | 0.0932
336.55 K | 0.0934
336.65 K | 0.0935
336.85 K | 0.0936
337.05 K | 0.0937
337.25 K | 0.0939
337.55 K | 0.0942
337.75 K | 0.0943
338.05 K | 0.0945
338.15 K | 0.0947
338.55 K | 0.095
338.75 K | 0.0951
338.95 K | 0.0952
339.05 K | 0.0953
339.15 K | 0.0954
339.35 K | 0.0955
339.65 K | 0.0957
339.85 K | 0.0959
340.05 K | 0.096
340.35 K | 0.0962
340.55 K | 0.0963
340.65 K | 0.0964
340.85 K | 0.0966
341.05 K | 0.0967
341.15 K | 0.0968
341.35 K | 0.097
341.55 K | 0.0971
341.65 K | 0.0972
341.85 K | 0.0973
341.95 K | 0.0974
342.05 K | 0.0975
342.25 K | 0.0977
342.45 K | 0.0979
342.75 K | 0.098
342.95 K | 0.0982
343.05 K | 0.0983
343.25 K | 0.0987
343.45 K | 0.0989
343.75 K | 0.099
343.95 K | 0.0991
344.05 K | 0.0993
344.35 K | 0.0995
344.55 K | 0.0996
344.75 K | 0.1
345.05 K | 0.1
345.35 K | 0.1
345.55 K | 0.101
345.85 K | 0.101
346.05 K | 0.101
346.25 K | 0.101
346.55 K | 0.101
346.75 K | 0.102
346.85 K | 0.102
347.05 K | 0.102
347.25 K | 0.102
347.55 K | 0.102
347.75 K | 0.102
348.05 K | 0.103
348.15 K | 0.103

Reference: the NIST ThermoML archive (doi:10.1021/acs.jced.5b00367)
